{"source": "PubChem BioAssay AID1195", "about": "(EPA DSSTox, 2008)", "system": "human maximum recommended daily dose, FDA database", "test": "DSSTox (FDAMDD) FDA Maximum (Recommended) Daily Dose Database", "settings": "active compounds read low", "summary_of_the_method": "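MRDD values come from clinical trials with daily oral dosing, usually for 3–12 months, for the average adult, in mg/day converted to mg/kg-bw/day assuming 60 kg. Antineoplastic mg/m2 doses are divided by 37. Activity score maps log10(1/MRDD mmol) onto 1–100.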", "key": {"[1]": {"settings": "TherapeuticCategory: antidiabetic"}, "[2]": {"settings": "TherapeuticCategory: antibacterial"}, "[3]": {"settings": "TherapeuticCategory: sedative, hypnotic"}, "[4]": {"settings": "TherapeuticCategory: antineoplastic"}, "[5]": {"settings": "TherapeuticCategory: antianginal"}}, "data": [{"smiles": "C=C1/C(=C\\C=C2/CCC[C@]3(C)[C@@H]([C@H](C)CCCC(C)(C)O)CC[C@@H]23)C[C@@H](O)C[C@@H]1O", "values": [{"measurement": "maximum recommended daily dose (mmol/kg-bw/day)", "setting": "TherapeuticCategory: calcium regulator", "result": "1.2e-07"}]}, {"smiles": "C[C@H](CN1CCOCC1)C(C(=O)N1CCCC1)(c1ccccc1)c1ccccc1", "values": [{"measurement": "maximum recommended daily dose (mmol/kg-bw/day)", "setting": "TherapeuticCategory: narcotic analgesic", "result": 0.000848}]}, {"smiles": "CC(C)(C)c1nnc(NS(=O)(=O)c2ccccc2)s1", "values": [{"measurement": "maximum recommended daily dose (mmol/kg-bw/day)", "setting": "[1]", "result": 0.042}]}, {"smiles": "CC1(C)S[C@@H]2[C@H](N3C(=O)C(c4ccccc4)NC3(C)C)C(=O)N2[C@H]1C(=O)O", "note": "(stereo not given in full)", "values": [{"measurement": "maximum recommended daily dose (mmol/kg-bw/day)", "setting": "[2]", "result": 0.0855}]}, {"smiles": "O=C1CCC(N2C(=O)c3ccccc3C2=O)C(=O)N1", "note": "(stereo not given)", "values": [{"measurement": "maximum recommended daily dose (mmol/kg-bw/day)", "setting": "[3]", "result": 0.0258}]}, {"smiles": "CN1C(=O)CC(c2ccccc2)C1=O", "note": "(stereo not given)", "values": [{"measurement": "maximum recommended daily dose (mmol/kg-bw/day)", "setting": "TherapeuticCategory: anticonvulsant", "result": 0.264}]}, {"smiles": "C[C@]12C=CC(=O)C=C1CC[C@@H]1[C@@H]2CC[C@]2(C)OC(=O)CC[C@@H]12", "values": [{"measurement": "maximum recommended daily dose (mmol/kg-bw/day)", "setting": "[4]", "result": 0.0139}]}, {"smiles": "COc1cc(NS(C)(=O)=O)ccc1Nc1c2ccccc2nc2ccccc12", "values": [{"measurement": "maximum recommended daily dose (mmol/kg-bw/day)", "setting": "[4]", "result": 0.00823}]}, {"smiles": "Nc1cc(-c2ccncc2)c[nH]c1=O", "values": [{"measurement": "maximum recommended daily dose (mmol/kg-bw/day)", "setting": "TherapeuticCategory: cardiotonic", "result": 0.00401}]}, {"smiles": "CN(C)CCN(Cc1ccccc1)c1ccccn1", "values": [{"measurement": "maximum recommended daily dose (mmol/kg-bw/day)", "setting": "TherapeuticCategory: antihistaminic", "result": 0.0392}]}, {"smiles": "CC[C@@H](CO)NC(=O)[C@@H]1C=C2c3cccc4[nH]cc(c34)C[C@H]2N(C)C1", "values": [{"measurement": "maximum recommended daily dose (mmol/kg-bw/day)", "setting": "TherapeuticCategory: oxytocic", "result": "3.92e-05"}]}, {"smiles": "O=[N+]([O-])O[C@@H]1CO[C@H]2[C@@H]1OC[C@@H]2O", "values": [{"measurement": "maximum recommended daily dose (mmol/kg-bw/day)", "setting": "[5]", "result": 0.0105}]}, {"smiles": "O=C(O)P(=O)(O)O", "values": [{"measurement": "maximum recommended daily dose (mmol/kg-bw/day)", "setting": "TherapeuticCategory: antiviral", "result": 0.625}]}, {"smiles": "NC(=O)c1cccnc1", "values": [{"measurement": "maximum recommended daily dose (mmol/kg-bw/day)", "setting": "TherapeuticCategory: vitamin", "result": 0.0682}]}, {"smiles": "CCCCN(CCCC)CCNc1nc(-c2ccccc2)no1", "values": [{"measurement": "maximum recommended daily dose (mmol/kg-bw/day)", "setting": "TherapeuticCategory: peripheral vasodilator", "result": 0.0126}]}, {"smiles": "C[C@H]1O[C@@H](n2cc(F)c(=O)[nH]c2=O)[C@H](O)[C@@H]1O", "values": [{"measurement": "maximum recommended daily dose (mmol/kg-bw/day)", "setting": "[4]", "result": 0.0812}]}, {"smiles": "Cc1cc(=O)n(-c2ccccc2)n1C", "note": "(tested in a mixture with another compound)", "values": [{"measurement": "maximum recommended daily dose (mmol/kg-bw/day)", "setting": "[3]", "result": 0.0626}]}, {"smiles": "CCCCN(CCCC)CCC(O)c1cc2c(Cl)cc(Cl)cc2c2cc(C(F)(F)F)ccc12", "note": "(stereo not given)", "values": [{"measurement": "maximum recommended daily dose (mmol/kg-bw/day)", "setting": "TherapeuticCategory: antimalarial", "result": 0.05}]}, {"smiles": "COc1cc(N)c(Cl)cc1C(=O)NC1CCN(CCCOc2ccc(F)cc2)CC1OC", "note": "(stereo not given)", "values": [{"measurement": "maximum recommended daily dose (mmol/kg-bw/day)", "setting": "TherapeuticCategory: peristaltic stimulant", "result": 0.00285}]}, {"smiles": "O=C(O)Cc1ccccc1Nc1c(Cl)cccc1Cl", "values": [{"measurement": "maximum recommended daily dose (mmol/kg-bw/day)", "setting": "TherapeuticCategory: anti inflammatory", "result": 0.0127}]}, {"smiles": "CCC(C)CON=O", "note": "(stereo not given)", "values": [{"measurement": "maximum recommended daily dose (mmol/kg-bw/day)", "setting": "TherapeuticCategory: none", "result": 0.0427}]}, {"smiles": "CC(I)C1OCC(CO)O1", "note": "(stereo not given)", "values": [{"measurement": "maximum recommended daily dose (mmol/kg-bw/day)", "setting": "TherapeuticCategory: expectorant", "result": 0.0155}]}, {"smiles": "CCCNC(=O)NS(=O)(=O)c1ccc(Cl)cc1", "values": [{"measurement": "maximum recommended daily dose (mmol/kg-bw/day)", "setting": "[1]", "result": 0.0452}]}, {"smiles": "COc1cccc(C(=O)CCN[C@@H](C)[C@H](O)c2ccccc2)c1", "values": [{"measurement": "maximum recommended daily dose (mmol/kg-bw/day)", "setting": "[5]", "result": 0.00255}]}, {"smiles": "CCOC(=O)[C@H](CCc1ccccc1)N[C@@H](C)C(=O)N1Cc2ccccc2C[C@H]1C(=O)O", "values": [{"measurement": "maximum recommended daily dose (mmol/kg-bw/day)", "setting": "TherapeuticCategory: antihypertensive, ACE inhibitor", "result": 0.00303}]}, {"smiles": "C[C@]12CC[C@@H]3c4ccc(O)cc4CC[C@H]3[C@@H]1CC[C@@H]2O", "values": [{"measurement": "maximum recommended daily dose (mmol/kg-bw/day)", "setting": "TherapeuticCategory: estrogen", "result": 0.00184}]}, {"smiles": "CC(CN(C)C)CN1c2ccccc2Sc2ccccc21", "note": "(stereo not given)", "values": [{"measurement": "maximum recommended daily dose (mmol/kg-bw/day)", "setting": "TherapeuticCategory: antipruritic", "result": 0.0056}]}, {"smiles": "CCC(=O)c1ccc2c(c1)N(CC(C)N(C)C)c1ccccc1S2", "note": "(stereo not given)", "values": [{"measurement": "maximum recommended daily dose (mmol/kg-bw/day)", "setting": "[3]", "result": 0.00245}]}, {"smiles": "CN[C@H]1CC[C@@H](c2ccc(Cl)c(Cl)c2)c2ccccc21", "values": [{"measurement": "maximum recommended daily dose (mmol/kg-bw/day)", "setting": "TherapeuticCategory: antidepressant", "result": 0.0109}]}, {"smiles": "COC(=O)[C@H]1[C@H]2C[C@@H]3c4[nH]c5cc(OC)ccc5c4CCN3C[C@H]2C[C@@H](OC(=O)/C=C/c2cc(OC)c(OC)c(OC)c2)[C@@H]1OC", "values": [{"measurement": "maximum recommended daily dose (mmol/kg-bw/day)", "setting": "TherapeuticCategory: antihypertensive", "result": "2.63e-05"}]}, {"smiles": "O=C(O)[C@H]1/C(=C/CO)O[C@@H]2CC(=O)N21", "values": [{"measurement": "maximum recommended daily dose (mmol/kg-bw/day)", "setting": "[2]", "result": 0.0314}]}, {"smiles": "CCN(C(C)=O)c1cccc(-c2ccnc3c(C#N)cnn23)c1", "values": [{"measurement": "maximum recommended daily dose (mmol/kg-bw/day)", "setting": "TherapeuticCategory: hypnotic, sedative", "result": 0.00164}]}, {"smiles": "Nc1nc2ncc(CNc3ccc(C(=O)N[C@@H](CCC(=O)O)C(=O)O)cc3)nc2c(=O)[nH]1", "values": [{"measurement": "maximum recommended daily dose (mmol/kg-bw/day)", "setting": "TherapeuticCategory: hematopoetic", "result": "3.01e-05"}]}, {"smiles": "CC[C@H](C)C(=O)O[C@H]1C[C@@H](C)C=C2C=C[C@H](C)[C@H](CC[C@@H]3C[C@@H](O)CC(=O)O3)[C@H]21", "values": [{"measurement": "maximum recommended daily dose (mmol/kg-bw/day)", "setting": "TherapeuticCategory: antihypercholesterolemic", "result": 0.00329}]}, {"smiles": "CC(=O)NS(=O)(=O)c1cc(N)ccc1S(=O)(=O)c1ccc(N)cc1", "values": [{"measurement": "maximum recommended daily dose (mmol/kg-bw/day)", "setting": "[2]", "result": 0.17}]}]}
